From patent publication US10709769B2, “Use of endostatin peptides for the treatment of fibrosis” (University of Pittsburgh—Of the Commonwealth System of …, priority 2009, dated 2020) come the findings set out here.

The subject of assay [1] is fibrotic lung fibroblasts from patients with IPF. Description: FN and Col1α1 in fibrotic lung fibroblasts without TGF-β stimulation, western blot. The class given is cell-based, human. From the text:
FIGS. 1A-1F. ECM production in recombinant endostatin- and endostatin-derived peptide-treated fibroblasts in combination with TGF-β stimulation. A: FN and Col1α1 expression in human normal lung fibroblasts (NL) treated with vehicle (V), rE alone, or both with prior TGF-β stimulation. Proteins were detected western blot. GAPDH was used as a loading control for lysates. B: FN and Col1α1 expression of endostatin polypeptide-treated lung fibroblasts following TGF-β stimulation in primary pulmonary fibroblasts from a healthy control, a patient with SSc, and a patient with IPF. C: Graphical summary of FN and Col1α1 expression in lung fibroblasts obtained using fibroblasts from 4 healthy controls (NL), 3 patients with SSc, and 3 patients with IPF. Intensity of bands was normalized to that of GAPDH and expressed as a ratio to Vehicle (V). Paired-t test was used for statistical analysis. * P<0.04, ** P<0.01. D: Representative result of FN and Col1α1 levels in human skin fibroblasts obtained from a patient with morphea and a patient with SSc. E: Representative result of FN and Col1α1 expression in fibrotic fibroblasts obtained from a patients with IPF treated with V, 5 μg/ml of rE, or endostatin polypeptides alone (left). IPF fibroblasts were treated with different concentrations (5, 10, and 20 μg/ml) of E4. DMSO (V) was added in a volume equivalent to that in the lane corresponding to 20 μg/ml of E4 (right). […]
(§1) Cellular lysates were obtained from cultured fibroblasts as previously described (Pilewski et al., Am J Pathol 2005; 166:399-407). […] Cellular lysates were analyzed by western blot. Signals were detected following incubation with horseradish peroxidase-conjugated secondary antibody and chemiluminescence (Perkin Elmer Life Sciences, Inc., Boston, Mass.). The intensity of individual bands with expected molecular sizes was semi-quantitatively analyzed using the image/J® software available at on the internet (/rsb.info.nih.gov/ij/index.html), and normalized to individual GAPDH intensity. […]

A further assay has as its system normal lung fibroblasts. The assay can be described thus: α-SMA levels in TGF-β-stimulated normal lung fibroblasts. The assay is classed as cell-based, human. The note with it: peptide following TGF-β stimulation.
Description: FIGS. 1A-1F. ECM production in recombinant endostatin- and endostatin-derived peptide-treated fibroblasts in combination with TGF-β stimulation. A: FN and Col1α1 expression in human normal lung fibroblasts (NL) treated with vehicle (V), rE alone, or both with prior TGF-β stimulation. Proteins were detected western blot. GAPDH was used as a loading control for lysates. B: FN and Col1α1 expression of endostatin polypeptide-treated lung fibroblasts following TGF-β stimulation in primary pulmonary fibroblasts from a healthy control, a patient with SSc, and a patient with IPF. […] Intensity of bands was normalized to that of GAPDH and expressed as a ratio to Vehicle (V). […]
as §1

The test system of assay [2] is Human umbilical vein endothelial cells (HUVECs). The assay can be described thus: Tubular formation assay in Matrigel. The assay is classed as cell-based. The settings on record: 50 nM, 24 hours. How it is done: The ability of endostatin peptide to inhibit angiogenesis was examined in tubular formation assay using Matrigel® culture. Human umbilical vein endothelial cells (HUVECs) were maintained in endothelial cell basal medium-2 (EBM-2; Clonetics, San Diego, Calif.) supplemented with EBM-2 MV SingleQuots®. HUVECs (5×10^4) were cultured in duplicate on 24-well Matrigel® plates (BD Biosciences, San Diego, Calif.) alone, or in the presence of rE or E4 peptide (50 nM) in EBM-2 at 37° C. DMSO was used as vehicle control. After 24 hours, images were captured using a […] microscope. The degree of cord formation was quantified by measuring the area occupied by tubes in 6 random fields per well. Three independent experiments were performed.

The test system of another assay is MMP-2. The assay can be described thus: MMP-2 gelatin zymography in primary human lung fibroblasts. The assay is classed as cell-based. The protocol:
FIG. 14A-14B. A. E4 reduces fibrosis in vitro by inducing MMP-2 activity in primary human lung fibroblasts, thus resulting in increased degradation of collagen and other matrix proteins. Digital image of a gelatin zymography gel showing increased MMP-2 activity when primary human lung fibroblasts are treated with E-4 following TGFβ (lane 4). Lane 1: Vehicle (DMSO); Lane 2: E-4; Lane 3: TGF 3; Lane 4: TGF 3 followed by E4. B. Digital image showing that both total and active MMP-2 levels are increased in cells treated with TGFbeta and E-4.

Assay [3] deals with human primary skin fibroblasts. Description: TGF-β-induced ECM production in primary skin (dermal) fibroblasts, western blot. The assay is classed as cell-based. The note with it: dermal fibroblasts from healthy controls, SSc or morphea patients. The protocol:
(§2) Human primary lung and skin fibroblasts were cultured. The explanted lungs of normal organ donors, patients with SSc or IPF, and clinically involved skin of SSc patients, a morphea patient and healthy donors were used for primary fibroblast culture. Approximately 2-cm pieces of peripheral lung and skin were minced and fibroblasts were cultured in Dulbecco's modified Eagle's medium (DMEM; Mediatech, Herndon, Va.) supplemented with 10% FBS, penicillin, streptomycin, and anti-mycotic agent, as previously described (Feghali et al., Arthritis Rheum 1999; 42:1451-7). All the cells were used between passages 3-6.
as §1

Assay [4] relates to human primary lung fibroblasts. Description: FN and Col1α1 western blot in TGF-β-treated primary lung fibroblasts. The assay is classed as cell-based. The note with it: normal human lung fibroblasts; TGF-β 10 ng/ml 24 h, then 5 μg/ml rE or peptide 48 h; vs TGF-β alone. How it is done:
as §2
Cellular lysates were obtained from cultured fibroblasts as previously described (Pilewski et al., Am J Pathol 2005; 166:399-407). Briefly, 2.0×10^5 primary fibroblasts were cultured in 35-mm wells in 0.5% FBS-containing medium supplemented with 10 ng/ml of human recombinant TGF-β or PBS as vehicle control for 24 h, following which 5 μg/ml of human rE, endostatin peptides (E1-E4), or DMSO (vehicle) was added for 48 h. In some experiments, endostatin peptides were used without TGF-β stimulation. Cellular lysates were analyzed by western blot. Signals were detected following incubation with horseradish peroxidase-conjugated secondary antibody and chemiluminescence (Perkin Elmer Life Sciences, Inc., Boston, Mass.). The intensity of individual bands with expected molecular sizes was semi-quantitatively analyzed using the image/J® software available at on the internet (/rsb.info.nih.gov/ij/index.html), and normalized to individual GAPDH intensity.
To evaluate whether endostatin modulates production of ECM components in fibroblasts, FN and Col1α1 expression was examined in normal human lung fibroblasts by western blot analysis. Cells were treated with 5 µg/ml rE for 48 h with or without pre-stimulation with human TGF-β for 24 h. […] To define the functional domain of endostatin that mediates its inhibitory effect, four different peptides were synthesized corresponding to different regions of endostatin (Table 1).
In general terms: Immunoblotting shows a protein as a band on a membrane.

[5] abbreviates: no TGF-β, 5, 10 and 20 μg/ml, vs vehicle control.

As to “H-^133SYCETWRTEAPSATGQASSLLGGRLLGQSAASCHHAYIVLCIENSFMT^180-CONH2 (H-SYCETWRTEAPSATGQASSLLGGRLLGQSAASCHHAYIVLCIENSFMT-NH2; cysteine pairing not given here; UniProt P39060 1704-1751, looked up, fragment) [E4, amino acids 133-180 of human endostatin; differs from E3 by the presence of a carboxy-terminal amide]”, the “FN and Col1α1 levels” value in assay [1] (no TGF-β stimulation, peptide alone) is given as “decreased”. For the same substance, in assay [1] (setting [5]), the Col1α1 levels entry is recorded as “dose-dependently reduced” and the FN levels result is listed as “modest effect”. Further, the “TGF-β-induced α-SMA levels” value with normal lung fibroblasts is on record as “decreased”. For the same substance, the “inhibition of tubular structure formation” value in assay [2] was “modest”. Also, the MMP-2 activity result in the assay with MMP-2 (E-4 following TGFβ, gelatin zymography) is listed as “increased”. The “total and active MMP-2 levels” value in the assay on MMP-2 (cells treated with TGFbeta and E-4) is “increased”. Also, the “TGF-β-induced ECM production (FN, Col1α1)” value in assay [3] is “reduced”. Also, the “FN and Col1α1 levels/production” value in assay [4] is on record as “significantly suppressed”.
